Measured values: US20120121691A1, “Method for Increasing the Production of a Specific ACYL-Chain Dihydroceramide(s) for Improving the Effectiveness of Cancer Treatments” (priority 2010, published 2012)

Legend:
[1] = test system: intracellular sphingolipids, CCRF-CEM cells; experiment: LC/MS/MS analysis of intracellular sphingolipids, CCRF-CEM; format: cell-based, human; conditions: for increase in corresponding dihydroceramide over sphinganine plus GT-11 alone: fatty acid in addition to sphinganine plus GT-11, six hours, P<0.05
Method: (§1) LC/MS/MS analysis of intracellular sphingolipids. Sphingolipids were separated using an Agilent 1200 HPLC (LC) and determined by ESI/MS/MS performed on a AB SCIEX 4000 QTRAP Hybrid Triple Quadrupole/Linear Ion Trap mass spectrometer (MS), operating in a multiple reaction monitoring positive ionization mode as described previously with moderate modifications (25). Briefly, 50 μL of a solution (1 μM) of internal sphingolipid standards (including -sphingosine, -sphinganine, -sphingosine-1-phosphate, and -ceramide) was added to each cell pellet sample. Lipids of each sample were extracted twice with 2 mL of the ethyl acetate/isopropyl alcohol/water (60:28:12; v:v) solvent system. Supernatants were transferred to glass tubes (Kimble Chase) and evaporated under air (10 PSI) at 40° C. After reconstitution in methanol (4 mL), 1 ml of each sample was separated for the determination of lipid phosphate. Remaining sample (3 mL) was dried and used for sphingolipid quantification. For ESI/MS/MS, the dried lipid sample was dissolved in mobile phase A. Samples were injected (10 μL) and separated on a Spectra C8SR, 150×3.0 mm, 3-μm particle size column using gradient-elution (mobile phase A/B, prepared as previously described).
(§2) Data acquisition, peak integration and analyte quantitation were performed using ABI/SCIEX Analyst 1.4.2 Software. Sphingolipid data were normalized to lipid phosphate as previously described (26). Briefly, samples were dried under air (10 PSI) and lipids were extracted using the method of Bligh and Dyer (27). Of importance for phosphate assay, only Kimble Chase disposable borosilicate tubes were used for minimal sample contamination. Organic phase was transferred to glass tubes and a known volume was separated to a new tube and dried at 80° C. Phosphate standards and dried samples were then heated with ashing buffer (water:10 N:70% [40:9:1]) at 160° C. overnight. Samples were then incubated with ammonium molybdate and ascorbic acid as previously described, and absorbance ([…]) was read using a SpectraMax.
CCRF-CEM cells were treated with drug/fatty acid vehicles (control), GT-11 (0.5 μM) alone, sphinganine (4 μM) alone or sphinganine (4 μM) plus GT-11 (0.5 μM) for six hours and subsequently prepared for sphingolipid analysis.
CCRF-CEM cells were treated with GT-11 (0.5 μM) alone, sphinganine (1 μM) alone or sphinganine (1 μM) plus GT-11 (0.5 μM) for six hours and prepared for quantitative analysis. DHCers were normalized to control and plotted as fold change (bar, z-axis). * indicates significance, with P<0.05. […] CCRF-CEM cells were treated with sphinganine (1 μM) plus GT-11 (0.5 μM) with and without specific solubilized fatty acids (carbon chain length (CX) and saturation (:X), Ex: C20:1=fatty acid with 20 carbons and one desaturation) for six hours and prepared for quantitative sphingolipid analysis. Dihydroceramides were normalized to control cells that received sphinganine plus GT-11 with no fatty acid and plotted as fold change (bar, z-axis). * indicates significance, with P<0.05.

[2] = test system: intracellular sphingolipids, COG-LL-332; experiment: LC/MS/MS analysis of intracellular sphingolipids, COG-LL-332; format: cell-based, human; conditions: for increase in corresponding dihydroceramide over sphinganine+GT-11 alone: COG-LL-332, fatty acid with sphinganine+GT-11, six hours, P<0.05
Method: as §1, §2
Cells were treated for 48 hours with Sa (0-4 μM)+/−GT-11 (0.5 μM) with or without C18:0-, C22:0- or C22:1-fatty acids. Cytotoxicity was measured using DIMSCAN, and data was normalized to control and plotted as survival fraction (y-axis). Gray and white symbols represent long and very long chain fatty acids, respectively. Gray lines encompass data used for sphingolipid correlation analysis with cytotoxicity. Datum point, mean; error bar, SEM. […]
Cytotoxicity was measured using DIMSCAN, and data was normalized to control and plotted as survival fraction (y-axis).

[3] = fatty acid 5 μM in addition to sphinganine 1 μM plus GT-11 0.5 μM, six hours, P<0.001
[4] = fatty acid in addition to sphinganine, no GT-11, P<0.001

Compound | increase in C22:0-DHCer over sphinganine plus GT-11 alone [1, 3] | increase in C24:0-DHCer over sphinganine plus GT-11 alone [1, 3] | increase in corresponding dihydroceramide over sphinganine plus GT-11 alone [1] | increase in C22:0-Cer over sphinganine alone [1, 4] | increase in C24:0-Cer over sphinganine alone [1, 4] | increase of C22:0-dihydroceramide compared to 4-HPR alone ([2]; COG-LL-332, fatty acid with 4-HPR 1.1 μM, six hours, P<0.001) | increase of C22:0-dihydroceramide over sphinganine+GT-11 alone ([2]; COG-LL-332, fatty acid with sphinganine 1 μM plus GT-11 0.5 μM, six hours, P<0.001) | increase in corresponding dihydroceramide over sphinganine+GT-11 alone [2]
CCCCCCCCCCCCCCCCCCCCCC(=O)O [C22:0-fatty acid] | 32 fold | 19 fold | significant increases | 13 fold | 4.6 fold | 8 fold | 57 fold | significant increases
CCCCCCCC/C=C\CCCCCCCCCCCC(=O)O [C22:1-fatty acid] | – | – | significant increases | – | – | – | – | significant increases
